Experimental data from PubChem BioAssay AID2060890 (Molecular Pharmacology Branch, DTP, NCI, 2025).
Values joined by “and” are separate entries in the source; they are usually repeats but may differ in a detail not shown here. Equal values may be shown once.

Test system: LG0703-F948-PDC complex spheroid viability
Assay: Anticancer human tumor LG0703-F948-PDC patient-derived lung adenocarcinoma cell line growth inhibition [RAS]
Conditions: for viability, T/C: stronger effect = lower value
Excerpt: RAS pathway inhibitors in Combinations in Complex Spheroids
A high-throughput screen of multi-cell type tumor spheroids was designed to identify active combinations of RAS pathway inhibitors and targeted small molecules. Complex spheroids include a stromal component modeled by human endothelial cells (HUVEC) and fibroblasts modeled by human mesenchymal stem cells (MSCs). The concentration ranges selected for each drug and investigational agent were based upon clinically achievable concentrations if the clinical Cmax of the agent was known.
Compounds. The drugs and investigational agents: abemaciclib (NSC768073), cobimetinib (NSC768068), divarasib (GDC6063, NSC841802), docetaxel (NSC628503), GDC-1971 (RLY-1971, NSC841576), gemcitabine (NSC613327), inavolisib (NSC800729), ipatasertib (NSC767898), KB-0742 (NSC834161), MRTX-1133 (NSC836407), osimertinib (NSC779217), RMC-4630 (NSC839698), RMC-6236 (NSC851965), RMC-6291 (NSC852671), Ro-3306 (NSC812927), sapanisertib (NSC764658), SN-38 (NSC673596), staurosporine (NSC755774), SY5609 (NSC837396), and tovorafenib (DAY101, NSC766906), were obtained from the National Cancer Institute (NCI) Developmental Therapeutics Program Chemical Repository. The FDA-approved anticancer drug set is available from the NCI Developmental Therapeutics Program. […] The stock solutions were prepared in dimethyl sulfoxide (DMSO, Sigma-Aldrich, St. Louis, MO, cat. D2650) at 800-fold the tested concentration and stored at -70 degrees C prior to their use. All drugs and investigational agents were tested over a range starting from a high concentration at or near the clinical Cmax and decreasing in half-log increments. If the clinical Cmax for an agent had not been determined, the highest concentration tested was 10 microM.
Cell Culture. All cells were maintained in an incubator at 37 degrees C and 5% CO2 with 95% humidity. The PDC lines were cultured according to standard operating procedures established by the NCI PDMR. All PDCs were thawed and cultured in Matrigel-coated flasks prepared with a working solution of 1X Ham's F-12 nutrient mix, without supplementation (Invitrogen, Waltham, MA, cat. 11765054), 100 U/mL penicillin-streptomycin (Invitrogen, cat. 15140122), and 2.5% Matrigel (Corning Inc., Corning, NY, cat. 354248) for the first three passages. The 362531-283-R-J2-PDC and 782815-120-R-J1-PDC lines were cultured in 6C/Colon 1B media, which includes advanced DMEM/F-12 (Thermo Fisher Scientific, cat. 12634028), 10 mM HEPES (Thermo Fisher Scientific, cat. 15630080), 1X GlutaMAX supplement (Thermo Fisher Scientific, cat. 35050061), 0.1 mg/mL primocin (InvivoGen, San Diego, CA, cat. ant-pm-2), 10% defined fetal bovine serum, heat inactivated (HyClone Laboratories Inc., Logan, UT, cat. SH30070.03HI), 50% L-WRN conditioned media (ATCC, cat. CRL-3276), 1.25 mM N-Acetyl-L-cysteine (Sigma-Aldrich, cat. A9165), 10 mM nicotinamide (Sigma-Aldrich, cat. N0636), 1X B-27 supplement (Thermo Fisher Scientific, cat. 17504044), 1X N-2 supplement (Thermo Fisher Scientific, cat. 17502048), 50 ng/mL human EGF (Thermo Fisher Scientific, cat. PHG0311), and 10 microM Y-27632 dihydrochloride (Tocris Bioscience, cat. 1254). The K12877-001-R-J1-PDC line was cultured in 6I media, which includes all 6C/Colon 1B media plus 10 ng/mL human FGF-10 (PeproTech, cat. 100-26), 1 ng/mL human FGF-2 (PeproTech, cat. 100-18B), 1 µM prostaglandin E2 (Tocris Bioscience, cat. 2296), […] hydrocortisone (Sigma-Aldrich, cat. H4001), and […] bovine insulin (Sigma-Aldrich, cat. I6634). The K86415-001-R-J1-PDC line was cultured in 6D media, which includes all 6C/Colon 1B media components minus the L-WRN conditioned media. The 485176-168-R4-J1-PDC was cultured in PANC media, which includes all 6C/Colon 1B media plus 100 ng/mL human FGF-10 (PeproTech, cat. 100-26), 500 nM SB-431542 (Selleckchem, cat. S1067), and 10 nM gastrin (Tocris Bioscience, cat. 3006). […]

[1] = compound alone, run of 09/09/2024
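Further: spheroids exposed to agents for 7 days.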
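Wherever viability, T/C is given: 100% = DMSO vehicle wells.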

SMILES | viability, T/C (compound 0.1 µM) | viability, T/C (compound 0.316 µM) | viability, T/C (compound 3.16 µM) | viability, T/C (compound 10 µM) | viability, T/C (compound 1 µM) | IC50 (curve of compound) | viability, T/C (compound 0.0316 µM) | other results
C#Cc1c(F)ccc2cc(O)cc(-c3ncc4c(N5CC6CCC(C5)N6)nc(OCC56CCCN5CC(F)C6)nc4c3F)c12 (stereo not given) | 98.8% [middle of 8 runs] | 85.7% [middle of 8 runs] | 61% [middle of 8 runs] | 56.6% [middle of 8 runs] | – | – | – | IC50 [1]: > 10000 nM and 9290 nM
C=CC(=O)N1CCN(c2nc(OCC3CCCN3C)nc3c(F)c(-c4nc(N)cc(C)c4C(F)(F)F)c(Cl)cc23)C(C)C1 (stereo not given) | 106% [middle of 11 runs] | – | – | – | 112% [middle of 11 runs] | > 1000 nM | – | viability, T/C (compound 0.01 µM): 102% [middle of 11 runs]; IC50 [1]: > 1000 nM
C=CC(=O)Nc1cc(Nc2nccc(-c3cn(C)c4ccccc34)n2)c(OC)cc1N(C)CCN(C)C | 16.2% [middle of 4 runs] | 17.2% [middle of 4 runs] | – | – | 12.8% [middle of 4 runs] | 10.1 nM [middle of 4 runs] | 21.9% [middle of 4 runs] | viability, T/C (compound 0.00316 µM): 90.6% [middle of 4 runs]; viability, T/C (compound 0.01 µM): 50.2% [middle of 4 runs]
CC(=O)OC12COC1CC(O)C1(C)C(=O)C(O)C3=C(C)C(OC(=O)C(O)C(NC(=O)OC(C)(C)C)c4ccccc4)CC(O)(C(OC(=O)c4ccccc4)C21)C3(C)C (stereo not given) | 33.9% [middle of 4 runs] | 39.8% [middle of 4 runs] | 43.2% [middle of 4 runs] | 44.4% [middle of 4 runs] | 39.7% [middle of 4 runs] | < 31.6 nM | 37.1% [middle of 4 runs] | –
CC(C)NCC(C(=O)N1CCN(c2ncnc3c2C(C)CC3O)CC1)c1ccc(Cl)cc1 (stereo not given) | 90.6% [middle of 4 runs] | 70.8% [middle of 4 runs] | 40.3% [middle of 4 runs] | 32.6% [middle of 4 runs] | 48% [middle of 4 runs] | 946 nM [middle of 4 runs] | – | –
CC(C)n1nc(-c2ccc3oc(N)nc3c2)c2c(N)ncnc21 | 17% [middle of 4 runs] | – | – | – | – | 6.31 nM [middle of 4 runs] | 23.2% [middle of 4 runs] | viability, T/C (compound 0.000316 µM): 104% [middle of 4 runs]; viability, T/C (compound 0.00316 µM): 65.1% [middle of 4 runs]; viability, T/C (compound 0.01 µM): 40.8% [middle of 4 runs]
CC(Nc1ccc2c(c1)OCCn1cc(N3C(=O)OCC3C(F)F)nc1-2)C(N)=O (stereo not given) | 88.9% [middle of 4 runs] | – | 45% [middle of 4 runs] | 27.8% [middle of 4 runs] | 56.3% [middle of 4 runs] | – | 96.2% [middle of 4 runs] | –
CC1(C)CCC(Nc2ncc(C(F)(F)F)c(-c3c[nH]c4c(P(C)(C)=O)c(C#N)ccc34)n2)CN1 (stereo not given) | – | – | – | – | – | > 300 nM | – | viability, T/C (compound 0.000949 µM): 91% [middle of 4 runs]; viability, T/C (compound 0.003 µM): 76.9% [middle of 4 runs]; viability, T/C (compound 0.00949 µM): 68.7% [middle of 4 runs]; viability, T/C (compound 0.03 µM): 67.9% [middle of 4 runs]; viability, T/C (compound 0.0949 µM): 65.8% [middle of 4 runs]; viability, T/C (compound 0.3 µM): 67.9% [middle of 4 runs]
CC1(O)CCCC1n1c(=O)c(C(F)F)cc2cnc(NC3CCN(S(C)(=O)=O)CC3)nc21 (stereo not given) | 94.2% [middle of 4 runs] | 86.8% [middle of 4 runs] | – | – | 96% [middle of 4 runs] | – | – | –
CCC(CC)c1cc(NC2CCC(N)C2)n2nccc2n1 (stereo not given) | 94.6% and 93.7% and 90% | 75.7% and 85.7% and 97% | 4.37% and 1.19% and 2.28% | 0.41% and 0.27% and 0.38% | 76.4% and 54.7% and 68.8% | 1520 nM and 1080 nM and 1380 nM | 85.9% and 96.8% and 101% | –
CCN1CCN(Cc2ccc(Nc3ncc(F)c(-c4cc(F)c5nc(C)n(C(C)C)c5c4)n3)nc2)CC1 | 85.1% [middle of 4 runs] | 92.1% [middle of 4 runs] | – | – | 83.4% [middle of 4 runs] | > 1000 nM | 84.7% [middle of 4 runs] | viability, T/C (compound 0.00316 µM): 110% and 103% (2×) and 94.4%; viability, T/C (compound 0.01 µM): 91.3% [middle of 4 runs]
CCc1c2c(nc3ccc(O)cc13)-c1cc3c(c(=O)n1C2)COC(=O)[C@]3(O)CC | – | – | – | – | – | – | – | viability, T/C (compound 0.003 µM): 98.3% [middle of 4 runs]; viability, T/C (compound 0.03 µM): 65.8% [middle of 4 runs]; viability, T/C (compound 0.3 µM): 31.6% [middle of 4 runs]
CCn1c(-c2cc(N3CCN(C)CC3)cnc2C(C)OC)c2c3cc(ccc31)-c1csc(n1)CC(NC(=O)C1CC1C)C(=O)N1CCCC(N1)C(=O)OCC(C)(C)C2 (stereo not given) | – | – | – | – | – | – | – | viability, T/C (compound 0.003 µM): 46.6% [middle of 8 runs]; viability, T/C (compound 0.00949 µM): 25.5% [middle of 8 runs]; viability, T/C (compound 0.03 µM): 14% [middle of 8 runs]; viability, T/C (compound 0.0949 µM): 11.6% [middle of 8 runs]; viability, T/C (compound 0.3 µM): 12.3% [middle of 8 runs]; IC50 (compound alone, run of 08/26/2024): 2.7 nM [middle of 8 runs]
CCn1c(-c2cccnc2C(C)OC)c2c3cc(ccc31)N1CCOC(CC(NC(=O)C(C(C)C)N(C)C(=O)C3(F)CCN(C(=O)C#CC(C)(C)N(C)C)CC3)C(=O)N3CCCC(N3)C(=O)OCC(C)(C)C2)C1 (stereo not given) | – | – | – | – | – | – | – | viability, T/C (compound 0.000949 µM): 99.8% [middle of 8 runs]; viability, T/C (compound 0.00949 µM): 101% [middle of 8 runs]; viability, T/C (compound 0.03 µM): 101% [middle of 8 runs]; viability, T/C (compound 0.0949 µM): 82.6% [middle of 8 runs]; viability, T/C (compound 0.3 µM): 50.1% [middle of 8 runs]
C[C@@H](NC(=O)c1ncnc(N)c1Cl)c1ncc(C(=O)Nc2cc(C(F)(F)F)c(Cl)cn2)s1 | 120% [middle of 4 runs] | 103% [middle of 4 runs] | 102% [middle of 4 runs] | – | 114% [middle of 4 runs] | > 10000 nM | 102% and 115% and 92.8% | –
Cc1nc(N2CCC3(CC2)COC(C)C3N)c(CO)nc1Sc1ccnc(N)c1Cl (stereo not given) | 68.1% and 83.2% and 66.4% | 50.8% and 48.3% and 51.7% | 22% and 21.2% and 25.2% | 11.4% and 12.8% and 12.1% | 36.9% and 35.6% and 34.5% | 348 nM and 399 nM and 337 nM | 91.6% and 86.5% and 84.2% | –
NC1c2ccccc2OC12CCN(c1cnc3c(N4CCCc5ncccc54)n[nH]c3n1)CC2 (stereo not given) | 31.6% [middle of 4 runs] | 20.4% [middle of 4 runs] | 5.94% [middle of 4 runs] | 2.92% [middle of 4 runs] | 13.1% [middle of 4 runs] | < 31.6 nM and 59 nM | 50.5% [middle of 4 runs] | –
Nc1ccn(C2OC(CO)C(O)C2(F)F)c(=O)n1 (stereo not given) | 37.3% [middle of 4 runs] | 37.3% [middle of 4 runs] | – | – | 32.1% [middle of 4 runs] | – | 38.3% [middle of 4 runs] | viability, T/C (compound 0.00316 µM): 73.4% [middle of 4 runs]
O=C(c1ccc(F)c(F)c1Nc1ccc(I)cc1F)N1CC(O)([C@@H]2CCCCN2)C1 | 42.3% [middle of 4 runs] | 30.9% [middle of 4 runs] | – | – | 25.4% [middle of 4 runs] | – | 57.7% [middle of 4 runs] | viability, T/C (compound 0.00316 µM): 96.7% [middle of 4 runs]; viability, T/C (compound 0.01 µM): 73.4% [middle of 4 runs]
